Where two headings read alike, the source gives them in different places. Marks after values point to notes of the source that are not given here.
Experiments:
[1] = Equilibrium solubility, shake-flask method; assay type: physicochemical; settings: 37 °C, thermodynamic from solid, read-out: Equilibrium solubility in buffer solution
Procedure: (§1) The shake-flask method was used to test the equilibrium solubility of NsTyr, NsTyr-2K, NsTyr-2Na in water at 37° C. […] The apparent lipid-water distribution coefficient log p of NsTyr-2K, NsTyr-2Na was respectively 1.512 and 1.477. Under different pHs, see Table 1 for the equilibrium solubility test data of NsTyr-2K, NsTyr-2Na; and see Table 2 for the apparent lipid-water distribution coefficient of NsTyr-2K and NsTyr-2Na.

[2] = Stability assessment (influencing factors, acceleration and long-term tests, Chinese Pharmacopoeia 2010); assay type: physicochemical; settings: high temperature, high humidity, strong light
Procedure: Considering that prototype drug stearoyl amino acid tend to absorb moisture, cake and become yellowish during long-term storage, the stearoyl amino acid is now converted into a form of active salt thereof. And the stability of NsTyr-2K and NsTyr-2Na was tested as required for bulk pharmaceutical chemicals according to the People's Republic of China Pharmacopoeia 2010.

[3] = Apparent lipid-water distribution coefficient; assay type: physicochemical
Procedure: as §1

[4] = system: gerbil model with global ischemia reperfusion injury; assay: Morris water maze test (cerebral ischemia); assay type: in vivo
From the text: (§2) Taking N-stearoyl amino acid potassium NsTyr-2K as an example, a gerbil model with global ischemia reperfusion injury was used to assess the protective role of NsTyr-2K against neurobehavioral disorder caused by cerebral ischemia-reperfusion injury by examining the changing behavioral indexes such as spatial, learning and cognitive functions in the perspective of overall animals during passive dark avoidance test and Morris water maze test.
Up to day 4, for normal animals their latency fell to 29.8+/−12.55 s, and their swimming distance to 3,216.5+/−1,026.46 cm. From day 1 to day 2, there was no evident difference in the average latency before reaching the platform and the swimming distance prior to going onto the platform between the ischemia group of gerbils and any of the other groups. As training sessions increased, the latency and swimming distance of each group of gerbils before reaching the platform was shortened. The gap between the ischemia group and any of the other groups began to widen and reached the record on day 4.

[5] = system: gerbil model with global ischemia reperfusion injury; assay: Neurobehavioral scores of acute cerebral ischemia reperfusion model; assay type: in vivo; settings: ischemic model group 3.1+/−0.32
From the text: as §2

obese mouse model [6] = assay: Collection and observation of fat and liver tissues of obese mice; assay type: in vivo, C57BL/6 mice; settings: for perirenal fat percentage quality: HFD I blank 1.63 ± 0.10; for Epididymal fat percentage quality: HFD I blank 2.99 ± 0.08; for Liver percentage quality: HFD I blank 3.51 ± 0.07
From the text: 2. Method: After administration test in Embodiment 8, the mice were denied food overnight. Their abdominal cavity was opened to observe abdominal fat content in each group of the mice. Epididymal fat, perirenal fat and liver were separated and weighed.

obese mouse model [7] = assay: H&E staining of fat and liver tissue of obese mice; assay type: in vivo, C57BL/6 mice
Procedure: 2. Method: Epididymal fat and liver were fixed in 10% neutral formaldehyde solution for 48 h. After paraffin embedding they were made into […] of slices, and stained with hematoxylin-eosin (H&E staining). Light microscope was used to observe the size of fat cells, the structure of liver cells and adipose accumulation.

[8] = Absorption kinetics after intragastric administration; assay type: in vivo; settings: SD rats, oral 200 mg/kg
Procedure: Ten SD rats weighing 150-180 g were randomly divided into two groups, each comprising five, with males and females combined. After intragastric administration of 200 mg/kg of saline solution containing NsTyr and NsTyr-2K, the average blood concentration-time curve thereof was respectively shown in FIG. 2.

obese mouse model [9] = assay: Administration test in obese mouse model (weight, food intake); assay type: in vivo, C57BL/6 mice; settings: for obese mouse weight: four weeks
Procedure: 2. Method: 60 C57BL/6 mice (aged 3 weeks, male, with a weight of 8.3 g each) were adaptively fed with 12% kcal normal diet for one week, and randomly divided into 6 groups, each consisting of 10 mice. One group (ND) continued to be fed with normal diet, the rest five groups (HFD I˜V) were fed with 45% kcal high-fat diet.
In the whole test process the mice kept raised in the following environment: temperature: 23±3° C.; humidity: 50±5%; bright and dim alternating cycle: 12 h/12 h; freely available to diet and drinking water in the whole process.
2. Method: ND and HFD I were respectively taken as normal and high-fat diet blank control groups, and were treated with 0.5% sodium carboxymethyl cellulose solution (5 ml/kg/day); HFD II˜IV were taken as groups of recipients, and were treated with NST-2K (20, 60, 100 mg/kg/day); HFD V was taken as a positive control group, and treated with Orlistat (100 mg/kg/day). All the above drugs dissolved in aqueous solution of 0.5% sodium carboxymethyl cellulose and were administered. The administration remained four weeks. In each week average weight and food intake were kept in record until the phase of administration ended.

[10] = both sexes, Sprague-Dawley (SD), rat, blood

Work on CCCCCCCCCCCCCCCCCC(=O)N[C@@H](Cc1ccc(O)cc1)C(=O)[O-].[K+] [NsTyr-2K, N-stearoyl tyrosine potassium salt] yielded a solubility thermodynamic ([1]; aqueous buffer, pH 2.0) of 49.3 µg/mL, a solubility thermodynamic ([1]; aqueous buffer, pH 3.0) of 58.5 µg/mL and a solubility thermodynamic ([1]; aqueous buffer, pH 4.0) of 188 µg/mL. For the same molecule, the solubility thermodynamic ([1]; aqueous buffer, pH 5.0) was 221 µg/mL, the solubility thermodynamic ([1]; aqueous buffer, pH 6.0) was 243 µg/mL and the solubility thermodynamic ([1]; aqueous buffer, pH 7.0) was 251 µg/mL. For the same molecule, the solubility thermodynamic ([1]; aqueous buffer, pH 8.0) was 286 µg/mL, the solubility thermodynamic ([1]; aqueous buffer, pH 9.0) was 370 µg/mL and the solubility thermodynamic ([1]; pH 7.4, aqueous buffer) was 270 µg/mL. For the same molecule, the stability [2] was “stable properties”, the logP [3] was 1.51 and the “Apparent lipid-water distribution coefficient Ko/w” value ([3]; buffer pH 2.0) was 76.020. For the same molecule, the logP ([3]; buffer pH 2.0, read-out: Apparent lipid-water distribution coefficient LogP) was 1.88, the “Apparent lipid-water distribution coefficient Ko/w” value ([3]; buffer pH 3.0) was 30.571 and the logP ([3]; buffer pH 3.0, read-out: Apparent lipid-water distribution coefficient LogP) was 1.49. For the same molecule, the “Apparent lipid-water distribution coefficient Ko/w” value ([3]; buffer pH 4.0) was 16.020, the logP ([3]; buffer pH 4.0, read-out: Apparent lipid-water distribution coefficient LogP) was 1.21 and the “Apparent lipid-water distribution coefficient Ko/w” value ([3]; buffer pH 5.0) was 21.934. The logP ([3]; buffer pH 5.0, read-out: Apparent lipid-water distribution coefficient LogP) was 1.34, the “Apparent lipid-water distribution coefficient Ko/w” value ([3]; buffer pH 6.0) was 28.935 and the logP ([3]; buffer pH 6.0, read-out: Apparent lipid-water distribution coefficient LogP) was 1.46. The “Apparent lipid-water distribution coefficient Ko/w” value ([3]; buffer pH 7.0) was 37.855, the logP ([3]; buffer pH 7.0, read-out: Apparent lipid-water distribution coefficient LogP) was 1.58 and the “Apparent lipid-water distribution coefficient Ko/w” value ([3]; buffer pH 7.4) was 16.674. For the same molecule, the logP ([3]; buffer pH 7.4, read-out: Apparent lipid-water distribution coefficient LogP) was 1.22, the “Apparent lipid-water distribution coefficient Ko/w” value ([3]; buffer pH 8.0) was 13.797 and the logP ([3]; buffer pH 8.0, read-out: Apparent lipid-water distribution coefficient LogP) was 1.14. The “Apparent lipid-water distribution coefficient Ko/w” value ([3]; buffer pH 9.0) was 13.140, the logP ([3]; buffer pH 9.0, read-out: Apparent lipid-water distribution coefficient LogP) was 1.12 and the “period before finding the underwater platform and swimming distance” value ([4]; 15 mg/kg, compared with the model group) was “no obvious difference”. The “time percentage and swimming distance percentage in the first quadrant (probe test)” value ([4]; day 5, platform removed, against ischemia group, NsTyr-2K 30 and 60 mg/kg, nimotop control) was “statistical difference”, the “period before finding the underwater platform and swimming distance” value ([4]; days 3 and 4, compared with the ischemia group, NsTyr-2K 30 and 60 mg/kg, nimotop positive control) was “a shortened period before finding the underwater platform and a shortened swimming distance” and the neurobehavioral score ([5]; 15 mg/kg) was 1.76+/−0.48. For the same molecule, the neurobehavioral score ([5]; 30 mg/kg) was 1.25+/−0.31, the “perirenal fat percentage quality” value (obese mouse model [6]; 20 mg/kg/day) was 1.51 ± 0.07 g/100 g weight and the “Epididymal fat percentage quality” value (obese mouse model [6]; 20 mg/kg/day) was 2.94 ± 0.11 g/100 g weight. The Liver percentage quality (obese mouse model [6]; 20 mg/kg/day) was 3.47 ± 0.05 g/100 g weight, the “perirenal fat percentage quality” value (obese mouse model [6]; 60 mg/kg/day) was 1.37 ± 0.04 g/100 g weight and the “Epididymal fat percentage quality” value (obese mouse model [6]; 60 mg/kg/day) was 2.72 ± 0.07 g/100 g weight. The Liver percentage quality (obese mouse model [6]; 60 mg/kg/day) was 3.41 ± 0.06***^ g/100 g weight, the “perirenal fat percentage quality” value (obese mouse model [6]; 100 mg/kg/day) was 1.26 ± 0.05 g/100 g weight and the “Epididymal fat percentage quality” value (obese mouse model [6]; 100 mg/kg/day) was 2.64 ± 0.08 g/100 g weight. For the same molecule, the Liver percentage quality (obese mouse model [6]; 100 mg/kg/day) was 3.46 ± 0.07***^ g/100 g weight, the abdominal fat pad (obese mouse model [6]; increasing doses 20, 60, 100 mg/kg/day, compared with HFD I) was “the abdominal fat pad showed a shrinking trend” and the “abdominal fat quality, compared with Orlistat” value (obese mouse model [6]; same dose (100 mg/kg)) was “better effects in reducing abdominal fat quality than Orlistat”. For the same molecule, the “size of epididymal fat cells” value (obese mouse model [7]; HFD III, HFD IV (NST-2K 60, 100 mg/kg/day) and HFD V (Orlistat 100 mg/kg/day) vs HFD I) was “evidently smaller fat cells than HFD I”, the “fat accumulation in liver tissues” value (obese mouse model [7]; as the administration dose increased, vs HFD I) was “the accumulation began to ease” and the “size of epididymal fat cells” value (obese mouse model [7]; low-dose (20 mg/kg/day)) was “could not significantly shrink fat cells”. For the same molecule, the “AUC multiplied, compared with NsTyr” value [8] was 30 times, the “half-life period compared with NsTyr” value [8] was “nearly doubled” and the “peak concentration Cmax multiplied, compared with NsTyr” value [8] was about 20 times. It also gave an AUC(0-inf) [8, 10] of 3690 ng·h/mL, an AUC(0-t) [8, 10] of 3490 ng·h/mL and a Cmax [8, 10] of 2400 ng/mL. The MRT last [8, 10] was 2.19 h, the Tmax [8, 10] was 0.6 h and the half-life [8, 10] was 2.9 h. The obese mouse weight (obese mouse model [9]; 100 mg/kg/day) was “can reduce obese mouse weight”, the “appetite (average daily food intake)” value (obese mouse model [9]; 4-week administration, high-fat diet groups) was “neither NST-2K nor Orlistat suppressed appetite” and the obese mouse weight (obese mouse model [9]; 20, 60 mg/kg/day) was “can inhibit weight gain in obese mice”.

— patent US9914698B2, “Stearoyl amino acid salt and preparation method and application thereof” (Shanghai Jiaotong University School of Medicine, priority 2014, dated 2018)
